Assay results: the NIST ThermoML archive (doi:10.1021/je900550v)
Numbers after ± are expanded uncertainties.

Settings: 101.33 kPa, Liquid; for speed of sound: Sing-around technique in a fixed-path interferometer; for mass density: Vibrating tube method

CC(=O)[O-].C[NH2+]CCO [N-methyl-2-hydroxyethylammonium acetate]
Settings	mass density [kg/m3]	speed of sound [m/s]	viscosity [mPa·s]
308.15 K	1094.83 ± 2.2	1769.3 ± 2.2	–
308.4 K	1094.68 ± 2.2	1768.7 ± 2.2	–
308.65 K	1094.52 ± 2.2	1768 ± 2.2	–
308.9 K	1094.37 ± 2.2	1767.4 ± 2.2	–
309.15 K	1094.22 ± 2.2	1766.8 ± 2.2	–
309.4 K	1094.07 ± 2.2	1766.1 ± 2.2	–
309.65 K	1093.92 ± 2.2	1765.5 ± 2.2	–
309.9 K	1093.77 ± 2.2	1764.8 ± 2.2	–
310.15 K	1093.62 ± 2.2	1764.2 ± 2.2	–
310.4 K	1093.47 ± 2.2	1763.6 ± 2.2	–
310.65 K	1093.31 ± 2.2	1762.9 ± 2.2	–
310.91 K	1093.16 ± 2.2	1762.3 ± 2.2	–
311.16 K	1093.01 ± 2.2	1761.7 ± 2.2	–
311.4 K	1092.85 ± 2.2	1761 ± 2.2	–
311.65 K	1092.7 ± 2.2	1760.4 ± 2.2	–
311.91 K	1092.55 ± 2.2	1759.7 ± 2.2	–
312.16 K	1092.4 ± 2.2	1759.1 ± 2.2	–
312.41 K	1092.24 ± 2.2	1758.5 ± 2.2	–
312.66 K	1092.09 ± 2.2	1757.8 ± 2.2	–
312.91 K	1091.94 ± 2.2	1757.2 ± 2.2	–
313.15 K	–	–	46.16 ± 1.3
313.16 K	1091.78 ± 2.2	1756.5 ± 2.2	–
313.4 K	1091.63 ± 2.2	1755.9 ± 2.2	–
313.66 K	1091.48 ± 2.2	1755.2 ± 2.2	–
313.9 K	1091.32 ± 2.2	1754.6 ± 2.2	–
314.15 K	1091.17 ± 2.2	1753.9 ± 2.2	–
314.4 K	1091.02 ± 2.2	1753.3 ± 2.2	–
314.65 K	1090.87 ± 2.2	1752.6 ± 2.2	–
314.9 K	1090.71 ± 2.2	1752 ± 2.2	–
315.15 K	1090.56 ± 2.2	1751.3 ± 2.2	–
315.41 K	1090.41 ± 2.2	1750.7 ± 2.2	–
315.65 K	1090.26 ± 2.2	1750 ± 2.2	–
315.91 K	1090.1 ± 2.2	1749.4 ± 2.2	–
316.16 K	1089.95 ± 2.2	1748.7 ± 2.2	–
316.41 K	1089.79 ± 2.2	1748.1 ± 2.2	–
316.66 K	1089.64 ± 2.2	1747.4 ± 2.2	–
316.91 K	1089.49 ± 2.2	1746.8 ± 2.2	–
317.16 K	1089.33 ± 2.2	1746.1 ± 2.2	–
317.4 K	1089.18 ± 2.2	1745.5 ± 2.2	–
317.66 K	1089.02 ± 2.2	1744.8 ± 2.2	–
317.91 K	1088.87 ± 2.2	1744.2 ± 2.2	–
318.15 K	–	–	37.28 ± 1.1
318.16 K	1088.72 ± 2.2	1743.5 ± 2.2	–
318.41 K	1088.56 ± 2.2	1742.8 ± 2.2	–
318.65 K	1088.41 ± 2.2	1742.2 ± 2.2	–
318.9 K	1088.26 ± 2.2	1741.5 ± 2.2	–
319.16 K	1088.1 ± 2.2	1740.9 ± 2.2	–
319.41 K	1087.94 ± 2.2	1740.2 ± 2.2	–
319.65 K	1087.79 ± 2.2	1739.6 ± 2.2	–
319.91 K	1087.64 ± 2.2	1738.9 ± 2.2	–
320.16 K	1087.48 ± 2.2	1738.2 ± 2.2	–
320.41 K	1087.33 ± 2.2	1737.6 ± 2.2	–
320.65 K	1087.17 ± 2.2	1736.9 ± 2.2	–
320.91 K	1087.02 ± 2.2	1736.3 ± 2.2	–
321.15 K	1086.86 ± 2.2	1735.6 ± 2.2	–
321.41 K	1086.71 ± 2.2	1735 ± 2.2	–
321.66 K	1086.55 ± 2.2	1734.3 ± 2.2	–
321.9 K	1086.4 ± 2.2	1733.6 ± 2.2	–
322.15 K	1086.24 ± 2.2	1733 ± 2.2	–
322.41 K	1086.08 ± 2.2	1732.3 ± 2.2	–
322.65 K	1085.93 ± 2.2	1731.7 ± 2.2	–
322.91 K	1085.77 ± 2.2	1731 ± 2.2	–
323.15 K	–	–	29.06 ± 0.85
323.16 K	1085.62 ± 2.2	1730.3 ± 2.2	–
323.41 K	1085.46 ± 2.2	1729.7 ± 2.2	–
323.65 K	1085.31 ± 2.2	1729 ± 2.2	–
323.91 K	1085.15 ± 2.2	1728.3 ± 2.2	–
324.16 K	1085 ± 2.2	1727.7 ± 2.2	–
324.41 K	1084.84 ± 2.2	1727 ± 2.2	–
324.65 K	1084.68 ± 2.2	1726.4 ± 2.2	–
324.9 K	1084.53 ± 2.2	1725.7 ± 2.2	–
325.16 K	1084.37 ± 2.2	1725 ± 2.2	–
325.4 K	1084.22 ± 2.2	1724.4 ± 2.2	–
325.66 K	1084.06 ± 2.2	1723.7 ± 2.2	–
325.9 K	1083.9 ± 2.2	1723.1 ± 2.2	–
326.16 K	1083.75 ± 2.2	1722.4 ± 2.2	–
326.41 K	1083.59 ± 2.2	1721.7 ± 2.2	–
326.66 K	1083.43 ± 2.2	1721.1 ± 2.2	–
326.9 K	1083.28 ± 2.2	1720.4 ± 2.2	–
327.16 K	1083.12 ± 2.2	1719.7 ± 2.2	–
327.4 K	1082.97 ± 2.2	1719.1 ± 2.2	–
327.66 K	1082.81 ± 2.2	1718.4 ± 2.2	–
327.9 K	1082.65 ± 2.2	1717.7 ± 2.2	–
328.15 K	1082.49 ± 2.2	1717.1 ± 2.2	–
328.41 K	1082.34 ± 2.2	1716.4 ± 2.2	–
328.66 K	1082.18 ± 2.2	1715.8 ± 2.2	–
328.9 K	1082.03 ± 2.2	1715.1 ± 2.2	–
329.16 K	1081.87 ± 2.2	1714.4 ± 2.2	–
329.4 K	1081.71 ± 2.2	1713.8 ± 2.2	–
329.65 K	1081.55 ± 2.2	1713.1 ± 2.2	–
329.9 K	1081.4 ± 2.2	1712.5 ± 2.2	–
330.16 K	1081.24 ± 2.2	1711.8 ± 2.2	–
330.41 K	1081.08 ± 2.2	1711.1 ± 2.2	–
330.66 K	1080.92 ± 2.2	1710.5 ± 2.2	–
330.91 K	1080.77 ± 2.2	1709.8 ± 2.2	–
331.16 K	1080.61 ± 2.2	1709.1 ± 2.2	–
331.41 K	1080.45 ± 2.2	1708.5 ± 2.2	–
331.66 K	1080.29 ± 2.2	1707.8 ± 2.2	–
331.91 K	1080.13 ± 2.2	1707.1 ± 2.2	–
332.16 K	1079.97 ± 2.2	1706.5 ± 2.2	–
332.41 K	1079.82 ± 2.2	1705.8 ± 2.2	–
332.66 K	1079.66 ± 2.2	1705.1 ± 2.2	–
332.91 K	1079.5 ± 2.2	1704.5 ± 2.2	–
333.16 K	1079.34 ± 2.2	1703.8 ± 2.2	–
333.41 K	1079.19 ± 2.2	1703.1 ± 2.2	–
333.66 K	1079.03 ± 2.2	1702.5 ± 2.2	–
333.91 K	1078.87 ± 2.2	1701.8 ± 2.2	–
334.16 K	1078.71 ± 2.2	1701.2 ± 2.2	–
334.41 K	1078.55 ± 2.2	1700.5 ± 2.2	–
334.66 K	1078.39 ± 2.2	1699.8 ± 2.2	–
334.91 K	1078.23 ± 2.2	1699.2 ± 2.2	–
335.16 K	1078.08 ± 2.2	1698.5 ± 2.2	–
335.41 K	1077.92 ± 2.2	1697.9 ± 2.2	–
335.66 K	1077.76 ± 2.2	1697.2 ± 2.2	–
335.91 K	1077.6 ± 2.2	1696.6 ± 2.2	–
336.16 K	1077.44 ± 2.2	1696 ± 2.2	–
336.41 K	1077.28 ± 2.2	1695.3 ± 2.2	–
336.66 K	1077.12 ± 2.2	1694.7 ± 2.2	–
336.9 K	1076.96 ± 2.2	1694 ± 2.2	–
337.16 K	1076.8 ± 2.2	1693.4 ± 2.2	–
337.4 K	1076.63 ± 2.2	1692.8 ± 2.2	–
337.66 K	1076.47 ± 2.2	1692.2 ± 2.2	–
337.9 K	1076.32 ± 2.2	1691.7 ± 2.2	–
338.15 K	1076.16 ± 2.2	1691.3 ± 2.2	–
